Data on 2 compounds can be found in patent publication US20080233051A1, “Nanoparticles for two-photon activated photodynamic therapy and imaging” (priority 2006, published 2008).

The nature of data set [1]: Fluorescence quantum yield of BDSA in solution and as nanoaggregates. The class given is physicochemical. The source says:
A representative transmission electron microscopic (TEM) image of the obtained nanoaggregates with a diameter of 44±7 nm is shown in FIG. 1a. […] The fluorescence quantum yield (Φf) of nanoaggregated state varies (0.1˜0.3), depending on the preparation conditions, including solvent, solvent/water ratio, and overall dye concentration, etc. […] No notable sign of H- or J-aggregation was observed, implying that molecular stacking is neither too close nor well ordered within the nanoaggregated structure. The fluorescence quenching in solution can be understood as dominant non-radiative decay, enhanced by free intramolecular torsional motion in solution, as in the case of flexible molecules showing viscosity-dependent fluorescence. Moreover, the weak, broad, and red-shifted emission of the solution, compared to that of the aggregate, implies the existence of large-amplitude relaxation in the excited state, such as twisted intramolecular charge transfer (TICT) which often acts as an intramolecular fluorescence quencher due to the nπ* characteristics. This is supported by our observation of intense and blue-shifted monomer fluorescence from a dilute solid solution of BDSA in PMMA film, where isolated molecules are frozen in the distorted form by rigid matrix, to prevent fluorescence quenching motion. The structural effect on aggregate formation and fluorescence was studied with a specific comparison between BDSA and the 1,4-phenylene analogue, BDSB, by varying the solvent/water ratio.

Data set [2] is described as follows: One- and two-photon excited fluorescence of HPPH/BDSA nanoparticles (intraparticle FRET). Type of data set: physicochemical. To be noted: free HPPH, self-aggregation. The procedure:
To produce fluorescent domains of BDSA aggregates in the particle matrix, the following amounts were loaded to induce phase separation: 10, 20, and 30 wt % with respect to the total VTES amount. Fluorescence lifetime measurements were performed using Time correlated Single Photon Counting (TCSPC) technique. For this measurements, Ti:Sapphire laser providing 800 nm femtosecond pulses was used as excitation source and a SPC-830 TCSPC module (Becker & Hickl) with an H7422 (Hamamatsu) detector with a response time in the range of 250 ps was used for the measurements. […] For an estimation of the instrument response function (IRF), a dye with a known fluorescence lifetime (from Streak camera measurements), less than 50 ps was used. […] For quantitative comparison, the concentrations of the nanoparticle water dispersions were kept the same for all the sample sets. The dispersions of all examined HPPH-loaded nanoparticles had the absorbance of 0.07 at 665 nm.
When excited at 425 nm, the obtained fluorescence spectrum of the coencapsulating nanoparticles is a composite of the emission contributions from the donor BDSA aggregates and the acceptor HPPH. Compared with the fluorescence intensities of the nanoparticles containing the corresponding amount of each dye, BDSA emission is quenched by 70% and HPPH emission is amplified ca. 5 times, indicating the occurrence of FRET. […]

Consider `CN(CCOC(=O)c1ccccc1)c1ccc(C=Cc2ccc(C=Cc3c4ccccc4c(C=Cc4ccc(C=Cc5ccc(N(C)CCOC(=O)c6ccccc6)cc5)cc4)c4ccccc34)cc2)cc1` [BDSA, 9,10-Bis(4′-{4″-[N-methyl-N-(2-benzoyloxyethyl)amino]styryl}styryl)anthracene], for which the “Fluorescence quantum yield (Φf)” value in data set [1] (NMP solution) was roughly 0.009. For the same compound, the “Fluorescence intensification by aggregation” value in data set [1] (aggregate versus NMP solution) was “more than 30 times”. Further, the “Fluorescence change on aggregate formation” value in data set [1] (varying solvent/water ratio, THF/H2O, 5 μM (FIG. 2)) is on record as “Enhanced fluorescence is seen”.

Regarding `CCCCCCOC(C)C1=C(C)c2cc3nc(c4c5[nH]c(cc6[nH]c(cc1n2)c(C)c6CC)c(C)c5C(=O)C4)C(CCC(=O)O)C3C` (stereo not shown) [HPPH, 2-devinyl-2-(1-hexyloxyethyl)pyropheophorbide], the “Fluorescence in water dispersions” value in data set [2] was “completely quenched”.
